Source: the NIST ThermoML archive (doi:10.1021/acs.jced.5b00737)
± gives the expanded uncertainty stated by the source.

Details: 298.15 K; Liquid; Gas chromatography

For `c1ccc(C2(N3CCCCC3)CCCCC2)cc1` [1-(1-phenylcyclohexyl)piperidine], the “vapor or sublimation pressure” value was 3e-05 ± 1.2e-05 kPa.

In the case of `CC(Cc1ccc(C(C)(C)C)cc1)CN1CCCCC1` (configuration not stated) [1-(3-(4-(tert-butyl)phenyl)-2-methylpropyl)piperidine], the “vapor or sublimation pressure” value is reported as 1.6e-05 ± 8e-06 kPa.
